Laboratory results from ChEMBL document CHEMBL1201862, “PubChem BioAssay data set” (2004).
Active and inactive are the calls of the source.

Key:
[1] = biological target: T1, Sentrin-specific protease 6 (Homo sapiens, UniProt Q9GZR1); assay: inhibition of human SENP6 catalytic domain – biochemical, luminescence, set 2, SAR follow-up (AID 588598); assay type: functional
T1 sequence (Q9GZR1 whole entry): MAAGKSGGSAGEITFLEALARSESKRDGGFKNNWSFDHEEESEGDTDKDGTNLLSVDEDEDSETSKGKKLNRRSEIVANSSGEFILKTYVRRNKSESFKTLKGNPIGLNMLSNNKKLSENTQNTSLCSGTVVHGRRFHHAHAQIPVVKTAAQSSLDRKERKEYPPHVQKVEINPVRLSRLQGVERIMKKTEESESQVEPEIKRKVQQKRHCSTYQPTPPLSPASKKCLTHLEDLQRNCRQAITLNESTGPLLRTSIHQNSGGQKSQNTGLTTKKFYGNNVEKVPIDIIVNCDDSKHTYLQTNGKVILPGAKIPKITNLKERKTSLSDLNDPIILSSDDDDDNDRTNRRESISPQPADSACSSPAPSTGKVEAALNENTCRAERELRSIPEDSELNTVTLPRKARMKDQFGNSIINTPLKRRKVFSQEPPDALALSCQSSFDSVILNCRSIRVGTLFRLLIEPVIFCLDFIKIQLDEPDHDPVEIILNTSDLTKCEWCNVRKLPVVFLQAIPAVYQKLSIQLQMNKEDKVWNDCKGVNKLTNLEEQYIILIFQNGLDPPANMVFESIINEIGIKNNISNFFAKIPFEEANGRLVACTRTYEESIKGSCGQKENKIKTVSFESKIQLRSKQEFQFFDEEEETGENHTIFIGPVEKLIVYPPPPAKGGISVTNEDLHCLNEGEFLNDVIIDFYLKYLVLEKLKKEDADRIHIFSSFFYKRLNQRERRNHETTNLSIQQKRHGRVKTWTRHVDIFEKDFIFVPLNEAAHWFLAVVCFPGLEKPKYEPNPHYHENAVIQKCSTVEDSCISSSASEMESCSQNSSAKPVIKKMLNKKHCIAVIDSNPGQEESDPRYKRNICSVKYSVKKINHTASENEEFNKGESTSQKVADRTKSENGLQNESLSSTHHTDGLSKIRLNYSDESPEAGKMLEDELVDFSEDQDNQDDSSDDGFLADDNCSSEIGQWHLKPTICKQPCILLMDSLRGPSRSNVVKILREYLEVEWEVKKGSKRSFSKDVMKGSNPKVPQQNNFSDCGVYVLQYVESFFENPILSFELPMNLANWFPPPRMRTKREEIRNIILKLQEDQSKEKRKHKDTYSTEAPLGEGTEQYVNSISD

Caspase-3 = biological target: T2, Caspase-3 (Homo sapiens, UniProt P42574); assay: inhibition of recombinant caspase-3 activity – biochemical, luminescence, set 2, selectivity assay for SENP protease inhibitor project, SAR follow-up (AID 588599); assay type: functional
T2 sequence (P42574 whole entry): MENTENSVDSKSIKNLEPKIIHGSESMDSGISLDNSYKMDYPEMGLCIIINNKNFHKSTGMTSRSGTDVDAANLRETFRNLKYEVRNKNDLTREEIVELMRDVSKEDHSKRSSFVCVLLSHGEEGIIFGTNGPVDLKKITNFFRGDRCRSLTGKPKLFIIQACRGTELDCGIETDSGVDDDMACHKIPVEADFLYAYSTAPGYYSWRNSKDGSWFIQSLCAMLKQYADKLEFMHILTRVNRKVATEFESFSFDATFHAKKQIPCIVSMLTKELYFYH

[2] = biological target: T3, Sentrin-specific protease 8 (Homo sapiens, UniProt Q96LD8); assay: inhibition of sentrin protease 8 – biochemical, luminescence, set 2, SAR follow-up (AID 588601); assay type: functional
T3 sequence (Q96LD8 whole entry): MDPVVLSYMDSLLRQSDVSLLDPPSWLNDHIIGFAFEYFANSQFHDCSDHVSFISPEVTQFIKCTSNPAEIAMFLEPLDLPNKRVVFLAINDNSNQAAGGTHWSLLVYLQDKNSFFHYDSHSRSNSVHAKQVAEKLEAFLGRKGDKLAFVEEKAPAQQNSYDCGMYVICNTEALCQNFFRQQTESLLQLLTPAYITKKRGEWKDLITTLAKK

[3] = biological target: T4, Sentrin-specific protease 7 (Homo sapiens, UniProt Q9BQF6); assay: inhibition of human SENP7 cleavage activity – biochemical, luminescence, set 2, SAR follow-up (AID 588600); assay type: functional
T4 sequence (Q9BQF6 whole entry): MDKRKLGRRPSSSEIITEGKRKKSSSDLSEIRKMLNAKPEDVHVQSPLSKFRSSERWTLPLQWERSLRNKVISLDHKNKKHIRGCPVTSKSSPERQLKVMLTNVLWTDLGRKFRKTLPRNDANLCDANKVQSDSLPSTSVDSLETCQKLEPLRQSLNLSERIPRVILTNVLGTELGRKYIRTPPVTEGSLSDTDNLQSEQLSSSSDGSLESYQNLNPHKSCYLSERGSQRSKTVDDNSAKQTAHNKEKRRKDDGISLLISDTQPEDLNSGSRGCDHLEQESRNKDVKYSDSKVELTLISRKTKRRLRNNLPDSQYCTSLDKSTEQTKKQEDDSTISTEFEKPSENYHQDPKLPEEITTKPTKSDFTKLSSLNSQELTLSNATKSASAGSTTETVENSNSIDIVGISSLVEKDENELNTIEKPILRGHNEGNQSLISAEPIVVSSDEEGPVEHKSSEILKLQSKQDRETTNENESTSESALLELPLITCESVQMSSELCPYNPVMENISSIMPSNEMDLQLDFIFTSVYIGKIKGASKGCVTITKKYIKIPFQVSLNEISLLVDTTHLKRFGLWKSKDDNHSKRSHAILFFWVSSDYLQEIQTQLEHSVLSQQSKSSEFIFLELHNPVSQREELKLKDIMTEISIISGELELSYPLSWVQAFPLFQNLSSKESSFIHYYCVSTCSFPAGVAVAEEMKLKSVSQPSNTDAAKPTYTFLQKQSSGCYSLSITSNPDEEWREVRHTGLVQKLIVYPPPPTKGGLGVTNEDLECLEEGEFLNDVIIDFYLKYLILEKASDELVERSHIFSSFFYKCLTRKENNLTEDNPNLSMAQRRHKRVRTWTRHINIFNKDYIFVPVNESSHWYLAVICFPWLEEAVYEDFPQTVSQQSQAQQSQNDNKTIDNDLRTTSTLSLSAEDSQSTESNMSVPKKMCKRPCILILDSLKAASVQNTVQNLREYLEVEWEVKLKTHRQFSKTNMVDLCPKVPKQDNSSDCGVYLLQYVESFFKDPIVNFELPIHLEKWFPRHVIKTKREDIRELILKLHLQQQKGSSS

[4] = biological target: Induced myeloid leukemia cell differentiation protein Mcl-1 (Homo sapiens, UniProt Q07820); assay type: functional
Chain of Induced myeloid leukemia cell differentiation protein Mcl-1 (Q07820 whole entry): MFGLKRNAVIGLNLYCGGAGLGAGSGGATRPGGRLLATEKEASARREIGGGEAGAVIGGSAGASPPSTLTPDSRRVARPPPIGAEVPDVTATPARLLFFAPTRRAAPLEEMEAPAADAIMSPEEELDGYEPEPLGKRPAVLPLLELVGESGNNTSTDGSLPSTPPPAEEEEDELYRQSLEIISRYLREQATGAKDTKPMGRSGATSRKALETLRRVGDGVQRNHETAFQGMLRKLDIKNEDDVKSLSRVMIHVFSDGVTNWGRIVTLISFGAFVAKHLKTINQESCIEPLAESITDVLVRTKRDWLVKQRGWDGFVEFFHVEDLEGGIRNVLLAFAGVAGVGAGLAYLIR

[5] = biological target: T5, Beta-adrenergic receptor kinase 1 (Homo sapiens, UniProt P25098); assay: aptamer displacement from bead-bound GRK2 – biochemical, cherry pick 1, bead flow cytometry, dose response (AID 504500)
T5 sequence (P25098 whole entry): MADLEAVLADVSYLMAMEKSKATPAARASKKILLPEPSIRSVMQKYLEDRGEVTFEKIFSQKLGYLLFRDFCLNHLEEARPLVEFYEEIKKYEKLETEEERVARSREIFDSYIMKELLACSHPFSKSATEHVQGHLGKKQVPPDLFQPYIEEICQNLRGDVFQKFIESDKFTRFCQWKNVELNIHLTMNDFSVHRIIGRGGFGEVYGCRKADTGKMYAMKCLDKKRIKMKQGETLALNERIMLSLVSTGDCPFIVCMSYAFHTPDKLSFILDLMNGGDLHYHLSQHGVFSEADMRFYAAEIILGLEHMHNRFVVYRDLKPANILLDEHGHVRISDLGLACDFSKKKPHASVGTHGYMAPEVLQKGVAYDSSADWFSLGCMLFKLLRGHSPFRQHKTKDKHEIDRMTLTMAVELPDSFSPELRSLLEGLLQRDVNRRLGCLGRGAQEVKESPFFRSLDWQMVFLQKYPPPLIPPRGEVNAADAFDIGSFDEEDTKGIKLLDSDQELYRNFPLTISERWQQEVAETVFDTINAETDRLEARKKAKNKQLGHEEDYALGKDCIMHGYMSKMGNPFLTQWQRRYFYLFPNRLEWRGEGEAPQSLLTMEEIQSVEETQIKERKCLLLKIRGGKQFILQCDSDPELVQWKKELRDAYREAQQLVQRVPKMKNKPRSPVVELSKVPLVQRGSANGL

[6] = biological target: T6, Bifunctional protein GlmU (Mycobacterium tuberculosis, UniProt P9WMN3); assay: Inhibitors of Mycobacterial Glucosamine-1-phosphate acetyl transferase (GlmU). Secondary screen.; parameters: species or system Mycobacterium tuberculosis H37Rv
T6 sequence (P9WMN3 whole entry): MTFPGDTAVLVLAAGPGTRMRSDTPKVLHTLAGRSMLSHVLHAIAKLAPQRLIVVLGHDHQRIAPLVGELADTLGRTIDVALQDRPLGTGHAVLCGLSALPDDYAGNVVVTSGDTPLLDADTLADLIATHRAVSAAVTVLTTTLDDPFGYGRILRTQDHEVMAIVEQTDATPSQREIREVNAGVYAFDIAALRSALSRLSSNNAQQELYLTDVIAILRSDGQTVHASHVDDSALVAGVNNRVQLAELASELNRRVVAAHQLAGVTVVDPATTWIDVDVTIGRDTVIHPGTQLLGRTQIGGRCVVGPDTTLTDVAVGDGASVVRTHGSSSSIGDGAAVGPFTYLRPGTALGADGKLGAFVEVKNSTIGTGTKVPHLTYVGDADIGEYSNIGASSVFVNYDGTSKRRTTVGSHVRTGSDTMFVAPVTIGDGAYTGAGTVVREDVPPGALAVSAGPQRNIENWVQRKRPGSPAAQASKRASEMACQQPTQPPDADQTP

[7] = biological target: Apoptotic protease-activating factor 1 (Homo sapiens, UniProt O14727); assay: activation of Apaf-1 mediated apoptosis – fluorescent, uHTS hits, dose response (AID 588554); assay type: functional
Chain of Apoptotic protease-activating factor 1 (O14727 whole entry): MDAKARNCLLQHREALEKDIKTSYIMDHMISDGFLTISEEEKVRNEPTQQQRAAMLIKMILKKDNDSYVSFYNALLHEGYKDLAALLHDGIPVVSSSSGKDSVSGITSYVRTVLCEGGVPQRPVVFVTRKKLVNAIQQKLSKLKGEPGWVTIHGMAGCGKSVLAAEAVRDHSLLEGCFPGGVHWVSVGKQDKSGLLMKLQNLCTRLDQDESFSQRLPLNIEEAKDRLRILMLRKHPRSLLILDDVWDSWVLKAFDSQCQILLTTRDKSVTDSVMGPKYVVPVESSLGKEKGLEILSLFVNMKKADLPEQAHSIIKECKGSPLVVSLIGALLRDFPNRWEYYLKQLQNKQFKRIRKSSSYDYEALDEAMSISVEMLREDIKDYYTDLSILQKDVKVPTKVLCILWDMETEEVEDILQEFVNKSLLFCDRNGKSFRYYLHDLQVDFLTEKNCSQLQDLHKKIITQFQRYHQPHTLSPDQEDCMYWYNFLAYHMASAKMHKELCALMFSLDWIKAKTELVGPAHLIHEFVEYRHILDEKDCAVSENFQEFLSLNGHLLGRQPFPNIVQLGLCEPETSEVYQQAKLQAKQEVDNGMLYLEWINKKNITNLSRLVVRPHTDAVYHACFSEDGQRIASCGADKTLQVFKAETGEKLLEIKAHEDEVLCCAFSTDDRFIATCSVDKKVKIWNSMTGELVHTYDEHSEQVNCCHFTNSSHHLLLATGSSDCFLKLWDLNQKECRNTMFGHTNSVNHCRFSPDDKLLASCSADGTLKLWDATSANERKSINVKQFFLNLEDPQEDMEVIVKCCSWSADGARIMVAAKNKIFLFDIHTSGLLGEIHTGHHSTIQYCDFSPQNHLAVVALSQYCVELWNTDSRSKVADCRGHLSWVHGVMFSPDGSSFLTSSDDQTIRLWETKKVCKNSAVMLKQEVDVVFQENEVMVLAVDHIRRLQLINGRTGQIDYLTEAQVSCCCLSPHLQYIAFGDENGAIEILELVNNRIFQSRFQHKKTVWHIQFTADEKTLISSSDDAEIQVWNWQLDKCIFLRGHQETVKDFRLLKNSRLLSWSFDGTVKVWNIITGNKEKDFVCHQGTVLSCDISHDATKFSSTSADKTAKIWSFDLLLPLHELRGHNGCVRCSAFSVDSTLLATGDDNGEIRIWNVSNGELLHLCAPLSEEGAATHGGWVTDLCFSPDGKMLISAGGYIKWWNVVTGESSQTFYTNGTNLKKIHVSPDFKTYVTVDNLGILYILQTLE

Phospholipase A2 = Phospholipase A2 (Homo sapiens, UniProt P04054); assay type: functional;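 also: confirmatory dose-response counterscreen on phospholipase A2, testing hits that came from an ultra-high-throughput screen for ATG4B inhibitors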
Chain of Phospholipase A2 (P04054 whole entry): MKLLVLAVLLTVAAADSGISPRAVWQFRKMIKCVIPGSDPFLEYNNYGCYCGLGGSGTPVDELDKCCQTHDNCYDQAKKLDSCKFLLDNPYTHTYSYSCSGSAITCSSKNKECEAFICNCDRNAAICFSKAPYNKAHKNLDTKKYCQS

Cysteine protease ATG4B = Cysteine protease ATG4B (Homo sapiens, UniProt Q9Y4P1); assay type: functional;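 also: Fluorescence-based dose-response confirmation assay measuring inhibition of ATG4B activity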
Chain of Cysteine protease ATG4B (Q9Y4P1 whole entry): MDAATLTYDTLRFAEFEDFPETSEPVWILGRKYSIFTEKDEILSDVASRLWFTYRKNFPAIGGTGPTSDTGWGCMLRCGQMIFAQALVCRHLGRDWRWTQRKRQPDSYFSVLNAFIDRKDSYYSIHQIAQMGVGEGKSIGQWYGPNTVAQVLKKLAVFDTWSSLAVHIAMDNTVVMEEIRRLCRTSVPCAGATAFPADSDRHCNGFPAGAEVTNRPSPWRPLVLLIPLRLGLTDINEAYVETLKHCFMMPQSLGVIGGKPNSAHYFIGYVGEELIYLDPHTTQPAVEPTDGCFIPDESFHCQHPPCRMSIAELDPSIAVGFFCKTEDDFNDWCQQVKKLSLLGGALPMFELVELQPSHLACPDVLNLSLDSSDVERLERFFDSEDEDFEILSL

HEK293 [8] = assay: membrane integrity loss in HEK cells – cell-based, fluorescence, cytotoxicity control for IDE activator project, dose response (AID 588440); assay type: functional; details: Homo sapiens;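 also: cytotoxicity by LDH release measuring loss of membrane integrity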
Insulin-degrading enzyme [9] = biological target: T7, Insulin-degrading enzyme (Homo sapiens, UniProt P14735); assay: cellular IDE activation of Abeta substrate cleavage – fluorescence polarization, HEK cells, dose response (AID 588439); assay type: functional, cell-based
T7 sequence (P14735 whole entry): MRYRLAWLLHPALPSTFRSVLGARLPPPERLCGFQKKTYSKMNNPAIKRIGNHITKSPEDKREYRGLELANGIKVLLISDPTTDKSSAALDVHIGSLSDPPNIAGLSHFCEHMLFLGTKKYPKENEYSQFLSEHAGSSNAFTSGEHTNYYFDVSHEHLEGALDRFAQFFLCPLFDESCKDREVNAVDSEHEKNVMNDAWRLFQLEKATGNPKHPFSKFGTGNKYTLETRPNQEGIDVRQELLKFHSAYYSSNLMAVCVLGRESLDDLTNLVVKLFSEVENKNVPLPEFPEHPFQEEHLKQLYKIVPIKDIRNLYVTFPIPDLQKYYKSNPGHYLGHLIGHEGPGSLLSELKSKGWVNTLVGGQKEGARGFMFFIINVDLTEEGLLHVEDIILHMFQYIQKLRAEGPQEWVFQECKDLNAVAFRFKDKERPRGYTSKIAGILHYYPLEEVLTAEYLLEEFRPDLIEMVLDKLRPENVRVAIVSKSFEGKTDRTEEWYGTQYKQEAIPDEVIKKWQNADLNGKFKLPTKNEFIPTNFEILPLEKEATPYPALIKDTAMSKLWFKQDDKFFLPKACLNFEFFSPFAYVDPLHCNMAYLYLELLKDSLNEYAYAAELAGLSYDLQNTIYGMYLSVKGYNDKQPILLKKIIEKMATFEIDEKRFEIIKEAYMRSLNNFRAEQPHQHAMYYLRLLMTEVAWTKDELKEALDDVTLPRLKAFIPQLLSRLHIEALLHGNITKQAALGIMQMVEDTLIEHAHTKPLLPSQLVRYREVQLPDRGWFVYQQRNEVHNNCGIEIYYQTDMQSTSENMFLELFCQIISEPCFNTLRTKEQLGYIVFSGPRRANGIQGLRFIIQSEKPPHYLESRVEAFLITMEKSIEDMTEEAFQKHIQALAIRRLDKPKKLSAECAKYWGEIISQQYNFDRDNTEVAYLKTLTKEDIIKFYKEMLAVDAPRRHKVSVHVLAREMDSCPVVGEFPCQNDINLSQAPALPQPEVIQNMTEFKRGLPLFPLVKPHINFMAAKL

HEK293 [10] = assay: optical interference in Abeta FP readout, dose response, artefact control for IDE activator project, biochemical, fluorescence polarization (AID 588442); assay type: functional, cell-based; details: Homo sapiens
Insulin-degrading enzyme [11] = biological target: T7, Insulin-degrading enzyme; assay: recombinant IDE activation, cell-free – biochemical, fluorescence polarization, counter-screen for IDE activator project, dose response (AID 588681)

Cc1[nH]c2ccccc2c1C(=O)C(=O)NCc1cc(-c2cc3ccccc3o2)on1
IC50 [1]: > 99 µM (inactive) | IC50 (Caspase-3): > 99 µM (inactive) | IC50 [2]: > 99 µM (inactive) | IC50 [3]: > 99 µM (inactive)

C=C(C)C(=O)Nc1cccc(C2=NOC3(C2)C[C@H](C(N)=O)N(C(=O)C(c2ccccc2)c2ccccc2)C3)c1 (stereo partly specified)
IC50 [4]: 3.12 µM (active) | EC50 [5]: 85.9 µM (inactive) | IC50 [6]: 167 µM (active) | EC50 [7]: 11.4 µM (active)

O=C(Nc1c(Cl)cccc1Cl)c1cc(-c2ccco2)on1
IC50 (Phospholipase A2): 6.14 µM (active) | IC50 (Cysteine protease ATG4B): 13.2 µM (active)

CCN(CC(=O)N1CCc2ccccc2C1)S(=O)(=O)c1ccc2ccccc2c1
IC50 (Phospholipase A2): 4.17 µM (active) | IC50 (Cysteine protease ATG4B): 23.7 µM (inactive)

CCN(CC)CCNC(=O)C[S+]([O-])Cc1nc(-c2ccccc2Cl)oc1C (stereo unspecified)
IC50 (HEK293 [8]): > 89.2 µM (inactive) | EC50 (Insulin-degrading enzyme [9]): > 54.7 µM (inactive) | EC50 (HEK293 [10]): > 55.9 µM (inactive) | EC50 (Insulin-degrading enzyme [11]): > 54.7 µM (inactive)
